These are literature values, as cited in US11167002B2, “Pharmaceutical composition for the treatment of malignant neoplasms including sarcoma, cancers of liver, lung, bladder, blood and cervical, treatment of infectious diseases and type 2 diabetes” (priority 2019, dated 2021).

The structures appear in SMILES notation.

For data set [1] the following is noted: allicin in pure form.
Data set [2] deals with Gram-negative and Gram-positive bacteria, including multidrug-resistant enterotoxigenic strains of Escherichia coli. As to conditions: allicin in pure form.
The test system of the next data set is Candida albicans. As to conditions: allicin in pure form.
Data set [3] deals with Entamoeba histolytica and Giardia lamblia. To be noted: allicin in pure form.

Turning to `C=CCS[S+]([O-])CC=C` (stereo not shown) [Allicin], the antiviral activity entry in data set [1] is reported as “antiviral activity”. Moreover, the antibacterial activity result in data set [2] was “antibacterial activity”. Besides, in the data set on Candida albicans, the antifungal activity entry was “antifungal activity”. Moreover, the antiparasitic activity result in data set [3] is on record as “antiparasitic activity”.
